Experimental data taken from US6737383B1, “Herbicidal oxadiazolidines” (priority 1999, dated 2004).

Assays:
[1] = system: bedstraw; experiment: Test B pre/postemergence bedstraw; format: in vivo, Galium aparine
Method in brief: (§1)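 Herbicidal effect was estimated by eye on a ten-point control scale after plants spent twelve to sixteen days in a greenhouse following soil or foliar treatment. Foliar sprays targeted plants at one to four leaves; all doses were formulated in a non-phytotoxic solvent with surfactant.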

[2] = system: blackgrass; experiment: Test B pre/postemergence blackgrass; format: in vivo, Alopecurus myosuroides
Method in brief: as §1

[3] = system: surinam grass; experiment: Test B pre/postemergence surinam grass; format: in vivo, Brachiaria decumbens
Method in brief: as §1

[4] = system: corn; experiment: Test B pre/postemergence corn; format: in vivo, Zea mays
Method in brief: as §1

[5] = system: crabgrass; experiment: Test B pre/postemergence crabgrass; format: in vivo, Digitaria sanguinalis
Method in brief: as §1

[6] = system: giant foxtail; experiment: Test B pre/postemergence giant foxtail; format: in vivo, Setaria faberii
Method in brief: as §1

[7] = system: morningglory; experiment: Test B pre/postemergence morningglory; format: in vivo, Ipomoea hederacea
Method in brief: as §1

[8] = system: pigweed; experiment: Test B pre/postemergence pigweed; format: in vivo, Amaranthus retroflexus
Method in brief: as §1

[9] = system: rape; experiment: Test B pre/postemergence rape; format: in vivo, Brassica napus
Method in brief: as §1

[10] = system: sugar beet; experiment: Test B pre/postemergence sugar beet; format: in vivo, Beta vulgaris
Method in brief: as §1

[11] = system: wheat; experiment: Test B pre/postemergence wheat; format: in vivo, Triticum aestivum
Method in brief: as §1

[12] = system: wild oat; experiment: Test B pre/postemergence wild oat; format: in vivo, Avena fatua
Method in brief: as §1

[13] = system: purple nutsedge; experiment: Test B pre/postemergence purple nutsedge; format: in vivo, Cyperus rotundus
Method in brief: as §1

[14] = system: rice; experiment: Test B flood test rice; format: in vivo, Oryza sativa
Method in brief: (§2)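 Read-out is a visual response score from 0 (no effect) to 10 (complete control), assigned by comparison with untreated controls. Treatment was applied at the 2-leaf stage, and plants stayed in the greenhouse for twelve to sixteen days before scoring.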

[15] = system: smallflower flatsedge; experiment: Test B flood test smallflower flatsedge; format: in vivo, Cyperus difformis
Method in brief: as §2

[16] = system: bamyardgrass; experiment: Test B flood test barnyardgrass; format: in vivo, Echinochloa crus-galli
Method in brief: as §2

[17] = Postemergence, Rate 62 g/ha, scale 0 to 10, 0 is no effect, 10 is complete control
[18] = Postemergence, Rate 125 g/ha, scale of 0 to 10 where 0 is no effect and 10 is complete control
[19] = Postemergence, Rate 250 g/ha, scale of 0 to 10, 0 is no effect, 10 is complete control
[20] = Preemergence, Rate 125 g/ha, scale of 0 to 10 where 0 is no effect and 10 is complete control
[21] = Postemergence, Rate 500 g/ha, scale of 0 to 10 where 0 is no effect and 10 is complete control
[22] = Preemergence, Rate 62 g/ha, scale of 0 to 10 where 0 is no effect and 10 is complete control
[23] = Preemergence, Rate 250 g/ha, scale 0 to 10 (0 no effect, 10 complete control)
[24] = Preemergence, Rate 500 g/ha, scale of 0 to 10 where 0 is no effect and 10 is complete control
[25] = Rate 62 g/ha, flood test species, Pre-emergence, visual evaluation after twelve to sixteen days
[26] = Rate 125 g/ha, under heading Pre-emergence, flood test species, visual evaluation after twelve to sixteen days
[27] = Rate 250 g/ha, Pre-emergence (flood test species), scale 0 to 10, 0 is no effect, 10 is complete control
[28] = Rate 500 g/ha, Pre-emergence section of Table B, 0 to 10 scale (0 no effect, 10 complete control)

Structure (SMILES): C=C(Cl)Cn1c(=O)on(C(=O)N(c2ccc(F)cc2F)C(C)C)c1=O [Compound 634]
- Plant response rating, Bedstraw [1, 17]: 0
- Plant response rating, Bedstraw [1, 18]: 0
- Bedstraw plant response rating [1, 19]: 0
- Bedstraw plant response rating [1, 20]: 0
- Plant response rating, Blackgrass [2, 17]: 2
- Plant response rating, Blackgrass [2, 18]: 6
- Blackgrass plant response rating [2, 19]: 8
- Plant response rating, Blackgrass [2, 21]: 8
- Blackgrass plant response rating [2, 22]: 4
- Blackgrass plant response rating [2, 20]: 6
- Plant response rating, Blackgrass [2, 23]: 8
- Plant response rating, Blackgrass [2, 24]: 9
- Plant response rating, B. signalgrass [3, 17]: 0
- Plant response rating, B. signalgrass [3, 18]: 0
- B. signalgrass plant response rating [3, 19]: 0
- Plant response rating, B. signalgrass [3, 21]: 5
- B. signalgrass plant response rating [3, 22]: 1
- B. signalgrass plant response rating [3, 20]: 5
- Plant response rating, B. signalgrass [3, 23]: 7
- Plant response rating, B. signalgrass [3, 24]: 10
- Plant response rating, Corn [4, 17]: 0
- Plant response rating, Corn [4, 18]: 0
- Corn plant response rating [4, 19]: 0
- Plant response rating, Corn [4, 21]: 0
- Corn plant response rating [4, 22]: 0
- Corn plant response rating [4, 20]: 0
- Plant response rating, Corn [4, 23]: 0
- Plant response rating, Corn [4, 24]: 0
- Plant response rating, Crabgrass [5, 17]: 0
- Plant response rating, Crabgrass [5, 18]: 3
- Crabgrass plant response rating [5, 19]: 7
- Plant response rating, Crabgrass [5, 21]: 9
- Crabgrass plant response rating [5, 22]: 7
- Crabgrass plant response rating [5, 20]: 8
- Plant response rating, Crabgrass [5, 23]: 10
- Plant response rating, Crabgrass [5, 24]: 10
- Plant response rating, Giant foxtail [6, 17]: 4
- Plant response rating, Giant foxtail [6, 18]: 8
- Giant foxtail plant response rating [6, 19]: 9
- Plant response rating, Giant foxtail [6, 21]: 9
- Giant foxtail plant response rating [6, 22]: 9
- Giant foxtail plant response rating [6, 20]: 10
- Plant response rating, Giant foxtail [6, 23]: 10
- Plant response rating, Giant foxtail [6, 24]: 10
- Plant response rating, Morningglory [7, 17]: 1
- Plant response rating, Morningglory [7, 18]: 1
- Morningglory plant response rating [7, 19]: 2
- Plant response rating, Morningglory [7, 21]: 2
- Morningglory plant response rating [7, 22]: 0
- Morningglory plant response rating [7, 20]: 0
- Plant response rating, Morningglory [7, 23]: 0
- Plant response rating, Morningglory [7, 24]: 0
- Plant response rating, Redroot pigweed [8, 17]: 1
- Plant response rating, Redroot pigweed [8, 18]: 2
- Redroot pigweed plant response rating [8, 19]: 2
- Redroot pigweed plant response rating [8, 22]: 0
- Redroot pigweed plant response rating [8, 20]: 4
- Plant response rating, Redroot pigweed [8, 23]: 10
- Plant response rating, Redroot pigweed [8, 24]: 10
- Plant response rating, Rape [9, 17]: 0
- Plant response rating, Rape [9, 18]: 0
- Rape plant response rating [9, 19]: 0
- Plant response rating, Rape [9, 21]: 0
- Rape plant response rating [9, 22]: 0
- Rape plant response rating [9, 20]: 2
- Plant response rating, Rape [9, 23]: 6
- Plant response rating, Rape [9, 24]: 7
- Plant response rating, Sugarbeets [10, 17]: 0
- Plant response rating, Sugarbeets [10, 18]: 0
- Sugarbeets plant response rating [10, 19]: 0
- Sugarbeets plant response rating [10, 22]: 0
- Sugarbeets plant response rating [10, 20]: 0
- Plant response rating, Sugarbeets [10, 23]: 5
- Plant response rating, Sugarbeets [10, 24]: 6
- Plant response rating, Wheat [11, 17]: 0
- Plant response rating, Wheat [11, 18]: 0
- Wheat plant response rating [11, 19]: 0
- Wheat plant response rating [11, 22]: 0
- Wheat plant response rating [11, 20]: 0
- Plant response rating, Wheat [11, 23]: 0
- Plant response rating, Wheat [11, 24]: 0
- Plant response rating, Wild oats [12, 17]: 0
- Plant response rating, Wild oats [12, 18]: 0
- Wild oats plant response rating [12, 19]: 0
- Wild oats plant response rating [12, 22]: 2
- Wild oats plant response rating [12, 20]: 5
- Plant response rating, Wild oats [12, 23]: 5
- Plant response rating, Wild oats [12, 24]: 7
- Plant response rating, Nutsedge [13, 17]: 0
- Plant response rating, Nutsedge [13, 18]: 0
- Plant response rating, Nutsedge [13, 21]: 0
- Nutsedge plant response rating [13, 22]: 0
- Nutsedge plant response rating [13, 20]: 0
- Plant response rating, Nutsedge [13, 23]: 0
- Plant response rating, Nutsedge [13, 24]: 0
- Plant response rating, Rice (0 to 10 scale, 0 is no effect, 10 is complete control) [14, 25]: 0
- Rice plant response rating (0 to 10 scale, 0 is no effect, 10 is complete control) [14, 26]: 0
- Rice plant response rating [14, 27]: 0
- Rice plant response rating [14, 28]: 0
- Plant response rating, S. Flatsedge (0 to 10 scale, 0 is no effect, 10 is complete control) [15, 25]: 0
- S. Flatsedge plant response rating (0 to 10 scale, 0 is no effect, 10 is complete control) [15, 26]: 0
- S. Flatsedge plant response rating [15, 27]: 0
- S. Flatsedge plant response rating [15, 28]: 0
- Plant response rating, Barnyardgrass (0 to 10 scale, 0 is no effect, 10 is complete control) [16, 25]: 0
- Barnyardgrass plant response rating (0 to 10 scale, 0 is no effect, 10 is complete control) [16, 26]: 0
- Barnyardgrass plant response rating [16, 27]: 0
- Barnyardgrass plant response rating [16, 28]: 0
